Experimental findings from patent US8022235B2, “Compositions of phospholipid ether boronic acids and esters and methods for their synthesis and use” (Cellectar, Inc., priority 2007, dated 2011) are described below.

Series [1] concerns Lung A-549 (NSCLC). Nature of the series: Imaging and tissue distribution, tumor model. The format is in vivo, SCID Mouse. Particulars: Adenocarcinoma.
The subject of series [2] is Colon LS-180. The series can be described thus: Imaging and tissue distribution, tumor model. Particulars: Adenocarcinoma. The format is in vivo, Nude Mouse.
Series [3] concerns Ovarian HTB-77. The series can be described thus: Imaging and tissue distribution, tumor model. The format is in vivo, Nude Mouse. Particulars: Adenocarcinoma.
Series [4] concerns Prostate MatLyLu. The series can be described thus: Gamma camera scintigraphy screen in Dunning R3327 (MAT LyLu) prostate cancer model. The format is in vivo, Copenhagen rats. How it is done:
(§1) The avidity of PLE and APC analogs to localize in tumors was evaluated in several animal models. The PC-3 model represents a human tumor cell line that was used to determine the target (tumor) to non-target ratio of NM404 and NM412 in head to head comparison in order to select a candidate for an initial human pharmacokinetic trial in prostate cancer patients. The MatLyLu (Dunning R3327 rat) model, a rat prostate tumor line, was used specifically to screen 9 specific analogs prior to entering them into control for dosimetry and tumor-bearing animals for determining tumor/background ratios. Finally, the Walker-256 carcinosarcoma model was used for quantitative tissue distribution purposes.
(§2) In order to expedite the screening process and minimize the number of tumor bearing animals utilized in multiple time point tissue distribution studies, new radioiodinated homologs were imaged by gamma camera scintigraphy in the rat Dunning […] (MAT LyLu strain) prostate cancer model. Thus, male Copenhagen rats received a subcutaneous injection of MAT LyLu cells (1×10^6 cells) in the thigh 10-14 days prior to injection of the radioiodinated PLE analogs (30-40 μCi) in 2% Tween-20 solution. Gamma camera images were obtained at multiple time points including 24 and 48 hours post injection. […] Tissue distribution of radioactivity in rats bearing Walker-256 carcinosarcoma was assessed at various time intervals following intravenous administration of the radioiodinated chain length homologs. The first group of compounds that was tested included three alkylphosphocholines: a shorter chain analog with seven carbons NM396 and two analogs with a longer chain length, 13 (NM397, C15 alkyl chain length) and 1 (NM404, C18 alkyl chain length).
In order to decrease liver uptake and prolong the plasma phase, the inventors examined 9 structural analogs of NM324 to identify agents that would display improved tumor-to-background tissue ratios with decreased liver uptake. The new PLE analogs were synthesized and radiolabeled with ^125I for initial image analysis in Copenhagen rats bearing Dunning R3327 prostate tumors. […] NM404 was therefore selected to undergo further imaging and biodistribution analysis in a variety of animal-tumor models.

The subject of series [5] is Walker-256 carcinosarcoma. The series can be described thus: Tissue distribution of radioactivity in Walker-256 carcinosarcoma model. The format is in vivo, rats. Here is the method:
as §1, §2

Series [6] deals with SCC1 and 6. The series can be described thus: Imaging and tissue distribution, tumor model; tumor regression. The format is in vivo. Particulars: Squamous cell carcinoma. The source says:
During the course of mouse tumor uptake and retention studies with “imaging” doses (15-20 μCi/20 g mouse) of ^125I-labeled NM404, several apparent therapeutic responses have been observed (unpublished results). […] Some of these animals also lost all hair above larger mammary tumors at around 8 days after injection. Moreover, these mice also get intestinal tumors and usually suffer from intestinal bleeding resulting in severe anemia, which renders their feet white. […] Another compelling example of tumor regression is illustrated in FIG. 13. Two litter mates each received SCC1 and SCC6 xenografts in their left and right flanks, respectively. One mouse received a single injection of ^125I-NM404 (20 μCi). […] These coincidental findings were reconfirmed in two separate age-matched groups each involving more than 6 mice.

The test system of series [7] is Adenomatous Polyp. The series can be described thus: Imaging and tissue distribution, tumor model. The format is in vivo, Spontaneous Mouse. As to conditions: Adenoma.
A short description of series [8]: Blood plasma kinetics. Also noted: species or system rats. Particulars: rat, in vivo.

SMILES strings stand for the structures.

As for `C[N+](C)(C)CCOP(=O)([O-])OCCCCCCCCCCCCCCCCCCc1ccc(I)cc1` [NM404, 18-(p-iodophenyl)-octadecyl phosphocholine], the Uptake entry in series [1], in series [2], in series [3], in series [4] (Adenocarcinoma), in series [5] (Carcinosarcoma) and in series [6] was “Yes” in each case. Moreover, the Uptake result in series [7] was “No”. In addition, the “tumor visualization by gamma camera scintigraphy” value in series [4] (24 and 48 hours after injection) is recorded as “readily visualized”. Besides, the liver activity result in series [4] (125I-labeled, initial image screen, compared with NM324) is listed as “much lower liver activity”. In series [4] (initial screen, FIG. 7), the “duration of tumor retention” value is given as “over 20 days”. For the same compound, in series [5] (48 hours after administration), the “peak radioactivity in the tumor” value was 1.14±0.01 % of ID/g. The blood levels in series [5] (120 hours) is on record as 0.6±0.1 % of ID/g. For the same compound, the “time of peak radioactivity in the tumor” value in series [5] (after intravenous administration) was 48 h. In addition, the “total radioactivity levels in the thyroid” value in series [5] (considering the small mass of the gland) is reported as “relatively low”. Moreover, the “radioactivity in liver, kidney and duodenum compared with C15 analog 13” value in series [5] (rat, in vivo) is reported as “significantly lower”. Further, the “distribution phase half life” value in series [8] worked out at 4.86 h. The “elimination half life time in plasma” value in series [8] is “roughly 209 hours”.
